Test: Melatonin time release profile (dissolution testing) of bilayer caplet
Assay type: physicochemical
Conditions: for Melatonin Released (%): bilayer caplet
Description: Initially, a small portion of melatonin was being added to the immediate release layer. […] The premix blends were modified by relocating all melatonin ingredients to the time release layer. During initial trials, modifications were also made to excipients for cost purposes. […] The final bilayer caplet is coated, making it easier to swallow, with peppermint oil for odour masking. With these optimum parameters assessed for each layer, the tablet satisfies all of the requisite physical and chemical parameters to deliver the ingredients as intended.

Compound: COc1ccc2[nH]cc(CCNC(C)=O)c2c1 [Melatonin]
- Melatonin Released (%) (hardness 28 kp, time 15 minutes): 20%
- Melatonin Released (%) (hardness 28 kp, time 60 minutes): 57%
- Melatonin Released (%) (hardness 28 kp, time 360 minutes): 99%
- Melatonin Released (%) (hardness 30 kp, time 15 minutes): 18%
- Melatonin Released (%) (hardness 30 kp, time 60 minutes): 52%
- Melatonin Released (%) (hardness 30 kp, time 360 minutes): 98%
- melatonin release in dissolution testing (initial trial formulation with a small portion of melatonin in the immediate release layer): released too quickly

From patent US10568856B2, “Composition for improved sleep” (Jamieson Laboratories, Ltd., priority 2015, dated 2020)
